# Entries after “also recorded” stand apart in the source; their conditions may differ.
# Columns and labels:
# CCL-210 cells = experiment: Lactate dehydrogenase release into the medium of treated cells (cytotoxicity); type: cell-based, human; conditions: at the concentration used (100 μM elsewhere in the source), data not shown
# mouse brain = experiment: MicroPET 18F-FDG uptake in the brain of hypoxic mice; type: in vivo
# Source text: MicroPET scanning MicroPET scanning can be conducted using an appropriate system, such as Siemen's Inveon. The Inveon is a dedicated small animal positron emission tomography (PET) scanner housed in the Feinstein Institute for Medical Research. This scanner is an ultra-high resolution tomography that includes a built-in transmission source used for the quantitative assessment of radiotracer binding. The use of ^18FDG is preferred.
# Scanning methods: All animals being scanned are housed in the Center for Comparative Physiology, within the Feinstein Institute. Animals receive an intraperitoneal (i.p.) injection of ^18FDG (between 1-2 mCi). […] Significant differences in absolute and region-of-interest to whole-brain relative metabolic glucose uptake are analyzed using student t-tests and repeated measures ANOVA.
# Further developing these studies, it is herein disclosed that inhibition of MIF prevented altered 2-deoxy-2-(^18F)fluoro-D-glucose (^18F-FDG) uptake in the brain of hypoxic mice (FIG. 8). […] In this study, a standardized uptake value (SUV) (56) was used, a simple semi-quantitative index, calculated by measuring the activity concentration in a region of interest (ROI) during a short-duration (10 min) static scan acquired 60 min after injection and then normalized for the injected dose or weight of the animal. […]
# mice = experiment: Clock maze task (spatial working memory) in hypoxic mice; type: in vivo, mouse; conditions: hypoxia, ISO-92 delivered to the dorsal hippocampus via osmotic pumps, n=4
# Protocol: Clock maze: A navigational test is used to measure spatial working memory, modified from Deacon and Rawlins (2002). The apparatus (termed “clock maze”) is a circular base platform (diameter, 85 cm) surrounded by a clear wall (30 cm high), sealed to the base by aquarium sealant to make it waterproof. Cold water (20° C.±1° C.) is added to a depth of 2 cm, sufficient to wet the underside of the belly of mice. The perimeter wall is pierced by 12 holes, 4 cm in diameter, arranged equidistantly around the circumference so that they are 23 cm apart. The lower edge of each hole is 3 cm above the maze floor, that is, at mouse head level. Eleven of these tubes were sealed with black plugs, flush with the internal pool wall surface; one is open and led to an escape pipe, which is 4 cm in diameter, made of black flexible plastic. Thus, from within the clock maze, the true exit looks similar to the decoys, even to the human eye. […] The animal is placed facing one of the long sides in a semi-random fashion (not more than 3 consecutive times the same way) and the time taken to enter the open tube was recorded by software (Ethovision). […] The latency to reach the target is recorded by software (Ethovision) with a maximum of 60 sec for each trial. […]
# The navigational test that measured spatial working memory was modified from Deacon and Rawlins (2002). […]
# C57BL6 mice = experiment: Mouse hypoxia model of pulmonary vascular remodeling and hypertension; type: in vivo
# Source text: Hypoxia in vivo: C57BL6 mice (male, 8˜10 weeks old) were purchased from Taconic Farms Inc. (Hudson, N.Y.). All the animals were housed in a pathogen-free environment, under standard light and dark cycles, with free access to food and water until they were used for the experiments. All experiments involving animals were reviewed and approved by Institutional Animal Care and Use Committee of The Feinstein Institute for Medical Research. An animal hypoxia chamber system (BioSpherix, Lacona, N.Y.) was used for the in vivo studies. […] Mice were randomly divided into 4 groups and treated with normoxia, or hypoxia for 3, 10, or 42 days. At the time of euthanasia, animals were anesthetized with isoflurane and 100% oxygen. A 26 gauge needle connected to a transducer was introduced into the right ventricular trans-diaphragmatically. The right ventricular (RV) pressure was measured and recorded using a computerized hemodynamic recording system (HAEMODYN, Harvard Apparatus, Mass.). After the RV pressure measurement, blood was taken from the RV and plasma was stored in −80° C. for MIF measurement. The mice were then euthanized by exsanguination. The hearts were removed, dissected and weighed. The heart weights were expressed as a ratio of the weight of the right ventricle to the weight of the left ventricle+septum (RV/S+LV). The lung was also collected; the left side was used for measure MIF mRNA expression, and the right side fixed, at inflation, in 4% paraformaldehyde for lung vascular histology study. […] Immediately after sub-cutaneous pump implantation on the dorsum of the animals, the mice were put into hypoxia chamber undergoing 10% normobaric hypoxia for 10 days or 21 days. At the indicated times, the RV pressure, heart weight (RV/S+LV), and vascular changes were determined in each group using the methods described above. Vascular wall thickness: Lung tissues were immunostained using anti α-smooth muscle actin (α-SMA) antibody (Abcam Inc, Cambridge Mass.) to reveal the muscular layer of the vessel wall. External diameter (ED) and internal diameter (ID) of 50 alveolar vessels (with ED of 40 to 100 μm) per animal were determined and recorded, by an independent investigator blinded to the sample's origin. The total wall thickness (WT) was measured as the mean distance between the internal and the external diameter. The percentage wall thickness (WT %) was calculated by the formula: WT %=2×WT/ED×100%. (38).
# [1] = test system: primary lung fibroblasts (mif-/-); experiment: Proliferation of primary mif-/- lung fibroblasts in hypoxia with conditioned medium from hypoxic mif+/+ cells; type: cell-based, mouse; conditions: 1% oxygen; vs carrier DMSO
# Protocol: Primary lung fibroblasts from MIF knockout (mif−/−) or their counterpart wild type C57BL6 mice (mif+/+) were established by using outgrowth from lung explants (36). Briefly, mouse lungs were removed using aseptic technique, carefully dissected free of connective tissue and fat, and cut into small pieces (<1 mm). These lung tissue pieces were cultured in a dish containing EMEM, 10% FBS, and 1% penicillin/streptomycin, at 37° C., 5% CO2 in air. Medium was changed twice a week. After about two weeks, fibroblasts had reached approximately 80% confluence. The fibroblasts were removed by trypsin and filtered using a sterilized 100-μm nylon cell strainer (Falcon) to remove any remaining tissue pieces. […]
# (§1) Cell proliferation assessments: 5-bromo-2-deoxyuridine (BrdU) incorporation measured by a commercially available kit (Calbiochem, EMD Chemical Inc., Gibbstown, N.J.) was used to quantify the fibroblast proliferation, BrdU is incorporated into the newly synthesized DNA of replicating cells (during the S phase of the cell cycle). […] BrdU incorporated in newly synthesized DNA was detected with a BrdU antibody using chemiluminescence for quantification. […]
# To further examine the role of MIF in hypoxia-induced fibroblast proliferation, the ability of primary lung fibroblasts (mif^−/− and mir^+/+) cultured under normoxic and hypoxic conditions for 24 hrs, was assessed. […]
# [2] = test system: Human lung fibroblasts (CCL-210); experiment: Hypoxia-induced proliferation of human lung fibroblasts (BrdU incorporation, cell counts); type: cell-based
# Protocol: Cell culture studies: Human lung fibroblasts (CCL-210) were purchased from American Type Culture Collection (ATCC, Manassas, Va.). Cells were cultured in Eagle Minimum Essential Medium (EMEM) (ATCC, Manassas, Va.) with 10% fetal bovine serum (FBS) at 37′C, 5% CO2. The cells were subcultured using standard procedures and were used for experiment during passages 3 to 10.
# as §1, with “cycle). The assay was performed according to the manufacturer's instructions.” for “cycle).”
# Hypoxia in vitro: A modular incubator chamber (Billups-Rothenberg Inc., Del Mar, Calif.) was used for the cell hypoxia studies. To induce hypoxia, the chamber was tightly closed and flushed with a gas mixture consisting of 95% nitrogen and 5% CO2 until the desired ambient oxygen concentration of 1% was reached as measured using an oxygen sensor (BioSpherix, Lacona, N.Y.). […]
# Cell proliferation, under both normoxic and hypoxic conditions, was then determined using the methods described above.
# [3] = 1.8 mg/kg/day s.c. osmotic pump, 10% oxygen, 10 or 21 days
structure (smiles),measurement,setting,value
CC(C)(C)COC(=O)CC1CC(c2ccc(O)c(F)c2)=NO1 (stereo not drawn) [ISO-92],cytotoxicity / lactate dehydrogenase release into culture medium,CCL-210 cells,not cytotoxic; also recorded: nor did it cause accumulation of lactate dehydrogenase
same,hypoxia-induced increase in brain glucose metabolism (18FDG images),"mouse brain; 10 days 10% hypoxia, ISO-92 via osmotic pump",blocked completely
same,"semi-quantitative 18F-FDG uptake (SUV) of specific brain regions, median value","mouse brain; 10 days hypoxia, differences not statistically significant",lower in each case
same,performance in the clock maze task (working memory),mice,completely normal performance
same,right ventricle hypertrophy (RV/S+LV),C57BL6 mice; [3],significantly reduced
same,"right ventricular systolic pressure (RVSP), effect in words",C57BL6 mice; [3],significantly reduced
same,vascular wall thickness (VascularWT %) / pulmonary vascular remodeling,C57BL6 mice; [3],significantly reduced
same,right ventricular systolic pressure,"C57BL6 mice; at 21 days hypoxia, normoxia 13.8±2.3, vehicle 20.2±1.4",16.8±1.5 mm Hg
same,reduction of right ventricular systolic pressures,"C57BL6 mice; at 21 days hypoxia, relative to vehicle and normoxia",approximately 53%
same,increased proliferation of mif-/- fibroblasts induced by conditioned medium from hypoxic mif+/+ cells,[1],abrogated; also recorded: inhibitable; also recorded: inhibited
same,growth of cells cultured in normoxic conditions,"[2]; CCL-210, 100 μM ISO-92, normoxia",no effect
same,hypoxia-induced cell proliferation,"[2]; CCL-210, 1% oxygen, 24 hrs, vs vehicle DMSO",inhibited by ISO-92 in a dose-dependent manner; also recorded: able to inhibit hypoxia-driven proliferation; also recorded: inhibited proliferation in a dose-dependent manner
